Entries after “also recorded” stand apart in the source; their conditions may differ. Where a name gives a salt, the structure may show the parent alone.
Tests used:
[1] = tested on: mitochondrial complex 1; assay: Seahorse OCR inhibition of PPV derivatives, normalized to PPV; format: cell-based; conditions: for Inhibitory activity OCR % of PPV: Seahorse, OCR inhibition at 10 μM concentration, normalized to PPV
Protocol: (§1) FIGS. 7A-7D show OCR and cellular toxicity data. […]. Bars represent mean OCR and PDE10 inhibitory activities from at least 5 (OCR) or 3 (PDE) replicates. All experiments were repeated at least twice. […] Values are mean+−SEM.
(§2) Seahorse analysis of the OCR. Oxygen consumption rate (OCR) was measured using Seahorse XF96 Flux Analyzer (Agilent Technologies). The cells were seeded to attach overnight, wells were washed with pre-warmed XF Calibrant (Agilent Technologies) and the replaced with unbuffered Assay Medium (pH 7.4, 5 mM glucose, 1 mM L-glutamine). The plates were incubated at 37° C. in a CO2-free incubator for 2 hours prior to assay. For succinate rescue assay, cells were permeabilized using XF Plasma Membrane Permeabilizer Reagent (XF PMP, Agilent Technologies) according to the manufacturer's instructions. The OCR rate was measured in 1× Mitochondrial Assay Solution (MAS) (70 mM sucrose, 220 mM mannitol, 10 mM KH2PO4, 5 mM MgCl2, 2 mM Hepes, 0.6% (w/v) fatty acid-free BSA and 1 mM EGTA; pH 7.4). After baseline oxygenation was established, 1 μM rotenone or 10 μM PPV was injected at time A, followed by 5 mM succinate at time B. Error bars represent standard deviation. For the washout experiment, EO771 cells were seeded overnight, then treated with 10 μM PPV or 1 μM rotenone 3 hours prior to OCR measurement. Media was replaced 1 and 2 hours before measurement and OCR reported.
Because PPV's effect on mitochondrial function is independent of cAMP levels it was reasoned that there are two activities in PPV, one inhibiting complex 1 and one inhibiting PDE10A that may reside in different parts of the molecule. The structure activity relationship of PPV relative to two assays was assessed: inhibition of cellular OCR by Seahorse, and inhibition of PDE10A by purified enzyme activity in multiwell plate (PDE10A activity assay kit, BPS Bioscience). Because PPV can compete with rotenone as complex 1 inhibitors, it was reasoned that they may be binding the same site and therefore the structures would be similar relative to the mitochondrial binding target. […] Because the top was a planar structure similar to that of rotenone, and they compete with each other for the same binding pocket on complex 1 (FIG. 10) the lower portion of the molecule and how it may resemble rotenone were investigated in more detail. It was established that flexible linkage was preferred for mitochondrial activity and bulky adducts to the lower benzene ring may block it (FIG. 7C). […] These lead compounds were synthesized from commercial precursors and purified on silica gel column. Structures were confirmed by ^1H NMR and found to be >95% pure by HPLC.

[2] = biological target: T1, PDE10A (Homo sapiens, UniProt Q9Y233); assay: PDE10A enzymatic assay (PDE10A activity assay kit, BPS Bioscience); format: biochemical; conditions: for Inhibitory activity PDE10A % of PPV: PDE10A inhibition at 1 μM, normalized to PPV
T1 construct: purchased BPS Bioscience
Protocol: FIGS. 7A-7D show OCR and cellular toxicity data. […] Bars represent mean OCR and PDE10 inhibitory activities from at least 5 (OCR) or 3 (PDE) replicates. All experiments were repeated at least twice. […] Values are mean+−SEM. […]
The structure activity relationship of PPV relative to two assays was assessed: inhibition of cellular OCR by Seahorse, and inhibition of PDE10A by purified enzyme activity in multiwell plate (PDE10A activity assay kit, BPS Bioscience). […] These lead compounds were synthesized from commercial precursors and purified on silica gel column.

[3] = Cellular toxicity of PPV derivatives by trypan blue; format: cell-based; conditions: 10 uM, 72 h
Protocol: as §1
Experimental: Cell lines. All cell lines were purchased from the American Type Culture Collection (ATCC) and grown DMEM (Corning) supplemented with 10% FBS (Seradigm) and 1% Penicillin/Streptomycin (Fisher Bioreagents) at 37° C. in 5% CO2. Cells were treated with inhibitors papaverine hydrochloride (Sigma-Aldrich), rotenone (Sigma-Aldrich), piericidin A (Santa Cruz), capsaicin (Sigma-Aldrich), antimycin A (Sigma-Aldrich) and succinic acid disodium salt (Sigma-Aldrich). Cell viability was assessed by trypan blue exclusion.

[4] = tested on: EO771 tumors; assay: Tumor growth delay of EO771 tumors with radiation (XRT); format: in vivo, mice; conditions: heterotopic EO771 flank tumors, nude mice, 2 mg/kg 35 minutes prior to 5 Gy
Protocol: (§3) P values were calculated against thigh muscle with two-tailed two-sample t test. FIG. 3B-3C show normalized tissue oxygenation in EO771 (b) or A549 (c) tumor-bearing mice after injection of 2 mg/kg PPV or vehicle saline (readings taken every minute, and curve is average of 5 traces). P value was analyzed by linear mixed model with autoregressive correlation structure at T=30-40 minutes. […] Values are mean area covered by pimonidazole-positive cells evaluated from 20 images per animal+−SEM. P value was calculated with two-tailed two-sample t test. […] Curves represent mean tumor volumes+−SEM. P values were calculated against XRT with two-tailed two-sample t test.
FIGS. 4A-4G show tumor growth before and after radiosensitization with PPV. FIG. 4A-4B show in vitro radiation survival assessment of A549 cell line treated with 10 μm PPV in normoxia (FIG. 4A) and anoxia (FIG. 4B). […] Values represent averaged colony counts+−standard deviation. […] Values are mean tumor volumes+−SEM. […] Values are mean tumor volumes+−SEM. FIG. 4E-4F show tumor growth delay. When tumors reached 4-fold volume increase, groups receiving no treatment or PPV only (FIG. 4E); and XRT only or PPV followed by XRT (FIG. 4F), tumor weights were compared. Values are mean tumor weights+−SEM (n=8). P values were calculated with two-tailed two-sample t test. FIG. 4G are related to FIG. 4E-4F tumor growth delay. Representative images of orthotopic EO771 tumors harvested on day 11 after treatment with XRT (top) or 2 mg/kg PPV followed by XRT (bottom). *P<0.05; **P<0.01; ***P<0.001; ****P<0.0001; n.s., not significant.
(§4) Bar graphs represent the mean area covered by pimonidazole-positive cells evaluated from 20 images per animal+−standard error of the mean. P value was calculated against control with two-tailed two-sample t test. […] Mean volumes+−SEM. P values were calculated against XRT with two-tailed two-sample t test. *P<0.05; **P<0.01; ***P<0.001; ****P<0.0001; n.s., not significant.
Tumor Growth kinetics. 2×10^6 EO771 or 5×10^6 A549 cells were injected s.c. into the flanks of 6-week old female immunocompetent C57/B6 (EO771) or immunocompromised nu/nu (A549) mice. Caliper measurements of opposing diameter were used to calculate the tumor volumes. Upon reaching […], the tumors were visualized by cone beam CT and treatment plans calculated using SARRP software. X-rays were delivered with a single beam delivering 5 Gy using the Small Animal Research Radiation Platform (SARRP, Xstrahl). Tumor volumes were measured until the post treatment volume increased 3-fold. Error bars represent standard deviation.
Both models of transplanted tumors that were used for the oxygenation experiments of papaverine's effect on radiation response in vivo were investigated. The murine breast cancer line EO771 that is syngeneic with the BL6 strain of mice was used and transplanted it orthotopically into the mammary fat pad of immune-competent mice. Also used was the human A549 lung adenocarcinoma line that was transplanted into the flank of immune-deficient mice. The breast cancers grew to approximately 150 mm^3 and were then randomized to receive either no treatment, a single dose of either 5 Gy, or papaverine at 2 mg/kg followed 30-40 minutes later by 5 Gy.

[5] = tested on: EO771 tumors; assay: Pimonidazole staining, hypoxic fraction of EO771 tumors; format: in vivo, mice; conditions: orthotopic EO771, immune-competent mice, 2 mg per kg
Protocol: as §3, §4
Pimonidazole staining. […] […] […] The hypoxic fraction of each tumor was quantified by thresholding signal at 50% of the maximum signal on control sections. Area covered by pimonidazole-positive cells was evaluated from 20 images per animal and averaged. Error bars represent the standard deviation.

[6] = tested on: A549 cells; assay: Seahorse OCR in A549 cells (dose response, IC50, washout); format: cell-based, Human
[7] = tested on: A549 NDUFV1 KO NDI1 cells; format: cell-based, Human; conditions: 10 μM papaverine or 1 μM rotenone
[8] = tested on: Panc1 cells; assay: Seahorse OCR in Panc1 cell line; format: cell-based, Human; conditions: increasing concentrations (sildenafil citrate 0, 5, 10, 20; 8-Bromo-cAMP 0, 10, 20)
Protocol: FIGS. 7A-7D show OCR and cellular toxicity data. […] Bars represent mean OCR and PDE10 inhibitory activities from at least 5 (OCR) or 3 (PDE) replicates. All experiments were repeated at least twice. […] Values are mean+−SEM.
as §2

T1 sequence (Q9Y233 267-1055): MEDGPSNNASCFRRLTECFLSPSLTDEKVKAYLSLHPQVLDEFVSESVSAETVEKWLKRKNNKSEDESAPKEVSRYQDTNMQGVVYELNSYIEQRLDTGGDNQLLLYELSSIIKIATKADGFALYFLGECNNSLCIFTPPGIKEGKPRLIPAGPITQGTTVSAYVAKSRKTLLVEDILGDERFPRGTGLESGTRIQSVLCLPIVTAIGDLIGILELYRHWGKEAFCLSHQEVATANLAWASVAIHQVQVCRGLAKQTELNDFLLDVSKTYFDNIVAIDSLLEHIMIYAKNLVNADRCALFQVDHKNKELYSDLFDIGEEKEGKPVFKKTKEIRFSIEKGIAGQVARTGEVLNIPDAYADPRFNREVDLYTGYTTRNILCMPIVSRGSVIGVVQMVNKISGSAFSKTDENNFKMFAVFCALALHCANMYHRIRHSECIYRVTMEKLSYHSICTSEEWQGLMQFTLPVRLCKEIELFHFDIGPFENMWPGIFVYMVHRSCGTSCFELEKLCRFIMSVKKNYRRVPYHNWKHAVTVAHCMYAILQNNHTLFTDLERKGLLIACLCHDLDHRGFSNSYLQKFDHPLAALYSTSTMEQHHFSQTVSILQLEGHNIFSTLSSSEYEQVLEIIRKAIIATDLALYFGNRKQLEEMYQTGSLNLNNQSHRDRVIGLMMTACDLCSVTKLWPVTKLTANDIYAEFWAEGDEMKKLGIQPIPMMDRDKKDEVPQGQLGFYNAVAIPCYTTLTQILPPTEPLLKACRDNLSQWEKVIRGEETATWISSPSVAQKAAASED

Compound	Inhibitory activity OCR % of PPV [1]	complex 1 activity compared to PPV ([1]; compared to PPV) [%]	IC20 ([2]; PDE10A2 enzymatic assay, n=3 replicates, read-out: PDE IC20 (PDE10A IC20)) [µM]	Inhibitory activity PDE10A % of PPV [2]	PDE10 activity compared to PPV ([2]; compared to PPV) [%]	cellular toxicity in vitro [3]	growth delay compared to radiation alone [4]	tumor hypoxia by pimonidazole staining [5]	IC50 ([6]; Homo sapiens, A549 cells by Seahorse, n=5 replicates, read-out: mitochondrial IC50 (OCR IC50)) [µM]	response of mitochondria (OCR) to drug [7]	reversibility of OCR inhibition in washout ([6]; 1 μM rotenone, media replaced)	effect on OCR [8]
COc1cc2ccnc(Cc3cc(C)cc(C)c3)c2cc1OC [SMV-23]	20.37 % of PPV	20	0.5	121.49 % of PPV	125	Neither of these compounds shows cellular toxicity	no increase in growth delay	no effect on hypoxia	94			
C=C(C)[C@H]1Cc2c(ccc3c2O[C@@H]2COc4cc(OC)c(OC)cc4[C@@H]2C3=O)O1 [rotenone]	193 % of PPV			0 % of PPV						resistant	no restoration in 3 hours; also recorded: irreversible inhibitor	
CCCc1nn(C)c2c(=O)[nH]c(-c3cc(S(=O)(=O)N4CCN(C)CC4)ccc3OCC)nc12 [sildenafil citrate]												no effect

Source: patent publication US20210163453A1, “DERIVATIVES OF PAPAVERINE THAT ARE EFFECTIVE HYPOXIC TUMOR RADIOSENSITIZERS” (Ohio State Innovation Foundation, priority 2018, published 2021)
